The values that follow come from patent US20240217968A1, “PHARMACEUTICAL COMPOUND” (DUKE STREET BIO LIMITED, priority 2021, published 2024).

A value given as a limit tells only on which side of the number the result lay.

The first experiment relates to tumour.
Assay: not given
To be noted: animal models; cited from earlier work.
As to `C[C@@H](COCCC(=O)N1CCN(c2ncc(C(F)(F)F)cn2)CC1)Nc1cn[nH]c(=O)c1C(F)(F)F` [RBN-2397], the “tumour regression and specific anti-tumour immunity” value is recorded as “tumour regression”.

A further experiment relates to CT26 colorectal cancer cells. As to the kind of experiment: Induction of IFNβ in cancer cell supernatants (mouse IFNβ ELISA), CT26. Type of experiment: cell-based, murine. As to conditions: 10 μM compound 177 alone or in combination with chemotherapeutic agents, 24 hours, FIG. 1. On the procedure:
(§1) Selected compounds were also tested for their ability to induce type I interferon (interferon β, IFNβ) production in cancer cells as a cell-based measure of PARP7 inhibition and its effects on stimulating the STING pathway signalling. […] Such data highlight the therapeutic utility of combining PARP7 inhibitors with chemotherapy or other agents that can induce aberrant cytosolic nucleic acids in order to further enhance an anti-tumour immune response.
(§2) CT26 and MC38 cells were seeded in 96-well microplates each at a density of 30,000 cells per well. Following overnight incubation, cells were treated with either DMSO, 10 μM compound 177, or various chemotherapeutic agents (final DMSO concentration of 0.2% v/v). Cells were also treated with 10 μM compound 177 in combination with various chemotherapeutic agents. After 24 hours, IFNβ was measured from cell supernatants using a sandwich enzyme linked immunosorbent assay (ELISA) assay kit (PBL Assay Sciences, catalogue number 42410-2) according to manufacturer's instructions.
On to `CC(COCCC(=O)N1CCN(c2ncc(C(F)(F)F)cn2)CC1)n1nc(C(F)(F)F)c2c(=O)[nH]ncc21` (single isomer, unassigned) [Compound 177, 1-(1-(3-oxo-3-(4-(5-(trifluoromethyl)pyrimidin-2-yl)piperazin-1-yl)propoxy)propan-2-yl)-3-(trifluoromethyl)-1,5-dihydro-4H-pyrazolo[3,4-d]pyridazin-4-one], for which the “induction of IFNβ in cell supernatants” value is given as “induction of IFNβ”.

A further experiment concerns the target T1, recombinant human Flag-tagged PARP7 (amino acids 456-657) (Homo sapiens, UniProt Q7Z3E1).
T1 construct: recombinant human Flag-tagged PARP7 (amino acids 456-657)
T1 sequence (Q7Z3E1 456-657): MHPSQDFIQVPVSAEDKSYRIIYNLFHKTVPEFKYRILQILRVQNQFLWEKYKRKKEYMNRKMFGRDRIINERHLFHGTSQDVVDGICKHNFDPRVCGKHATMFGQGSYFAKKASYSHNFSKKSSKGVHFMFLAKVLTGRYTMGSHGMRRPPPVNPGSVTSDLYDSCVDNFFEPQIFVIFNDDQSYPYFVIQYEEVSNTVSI
As to the kind of experiment: PARP7 biochemical DELFIA assay (auto-MARylation). As to conditions: DELFIA readout, IC50 class. Put shortly: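 Flag-PARP7 (456-657), 12.5-37.5 nM stock, captured on anti-FLAG wells, preincubated 30 min with compound, then auto-MARylated with biotin-NAD+ (15 μM stock) in HEPES pH 7.5/NaCl/DTT/BSA/Tween for 2-3 h at room temperature. NAD+ quench; Eu-streptavidin DELFIA read, Ex337/Em620 nm.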
By IC50 is commonly meant the point on the concentration scale where inhibition reaches its midpoint. For the compound `CC(COCCC(=O)N1CCN(c2ncc(C(F)(F)F)cn2)CC1)n1nc(C(F)(F)F)c2c(=O)[nH]ncc21` (single isomer, unassigned) [Compound 177, 1-(1-(3-oxo-3-(4-(5-(trifluoromethyl)pyrimidin-2-yl)piperazin-1-yl)propoxy)propan-2-yl)-3-(trifluoromethyl)-1,5-dihydro-4H-pyrazolo[3,4-d]pyridazin-4-one], the IC50 is no more than 100 nM.

On to `CC(COCC(=O)N(C)C1CCN(c2ncc(C(F)(F)F)cn2)CC1)n1cc(C(F)(F)F)c2c(=O)[nH]ncc21` (centres unmarked) [Compound 463], for which the IC50 is no more than 100 nM.

Consider `CC(COCCC(=O)N1CCN(c2ccc(C#N)cn2)CC1)c1ccc(Cl)c2c(=O)[nH]ncc12` (single isomer, unassigned) [Compound 416], for which the IC50 was no more than 100 nM.

Turning to `N#Cc1ccc(N2CCN(C(=O)c3ccc(Cc4cccc5c(=O)[nH]ncc45)cc3)CC2)nc1` [Compound 32], the IC50 is 1000 to 10000 nM.

For the compound `CC(COCCC(=O)N1CCN(c2ncc(C(F)(F)F)cn2)CC1)n1cc(C(F)(F)F)c2c(=O)[nH]ncc21` (single isomer, unassigned) [Compound 223, 1-(1-(3-oxo-3-(4-(5-(trifluoromethyl)pyrimidin-2-yl)piperazin-1-yl)propoxy)propan-2-yl)-3-(trifluoromethyl)-1,5-dihydro-4H-pyrrolo[2,3-d]pyridazin-4-one], the IC50 was no more than 100 nM.

With `CC(C)c1cn(CCOCCC(=O)N2CCN(c3ncc(C(F)(F)F)cn3)CC2)c2cn[nH]c(=O)c12` [Compound 150], the IC50 was no more than 100 nM.

For the compound `O=C(CCOCC(c1cccc2c(=O)[nH]ncc12)C(F)(F)F)N1CCN(c2ncc(C(F)(F)F)cn2)CC1` (centres unmarked) [Compound 426], the IC50 was in the range of 1000 to 10000 nM.

Take `CC(CCOCC(=O)N1CCN(c2ncc(Cl)cn2)CC1)n1nc(C(F)(F)F)c2c(=O)[nH]ncc21` (centres unmarked) [Compound 452]: the IC50 was no more than 100 nM.

For `CC(COCCC(=O)N1CCN(c2ncccc2C#N)CC1)n1nc(C(F)(F)F)c2c(=O)[nH]ncc21` (single isomer, unassigned) [Compound 405], the IC50 was 100 to 1000 nM.

Take `Cc1nn(CCOCCC(=O)N2CCN(c3ncc(C(F)(F)F)cn3)CC2)c2[nH]c(=O)[nH]c(=O)c12` [Compound 402]: the IC50 is no more than 100 nM.

On to `CC(COCCC(=O)N1CCN(c2nc(C#N)cs2)CC1)n1nc(C(F)(F)F)c2c(=O)[nH]ncc21` (single isomer, unassigned) [Compound 250], for which the IC50 is 1000 to 10000 nM.

`O=C(CCOCCc1cccc2c(=O)[nH]ncc12)N1CCN(c2nc3ccc(Cl)cc3o2)CC1` [Compound 205]: the IC50 was no more than 100 nM.

`CC(COCCC(=O)N1CCN(c2ncc(F)cn2)CC1)n1nc(C(F)(F)F)c2c(=O)[nH]ncc21` (single isomer, unassigned) [Compound 248, 1-(1-(3-(4-(5-fluoropyrimidin-2-yl)piperazin-1-yl)-3-oxopropoxy)propan-2-yl)-3-(trifluoromethyl)-1,5-dihydro-4H-pyrazolo[3,4-d]pyridazin-4-one]: the IC50 was no more than 100 nM.

Turning to `CC(COCCC(=O)N1CCN(c2nnc(C(F)(F)F)[nH]2)CC1)n1nc(C(F)(F)F)c2c(=O)[nH]ncc21` (centres unmarked) [Compound 392], the IC50 is 100 to 1000 nM.

Regarding `Cc1c(C)n(C(C)COCCC(=O)N2CCN(c3ncc(C(F)(F)F)cn3)CC2)c2cn[nH]c(=O)c12` (single isomer, unassigned) [Compound 366], the IC50 is no more than 100 nM.

As for `CC(COCCC(=O)N1CCN(c2ccc(C(F)(F)F)cn2)CC1)n1nc(C(F)(F)F)c2c(=O)[nH]ncc21` (centres unmarked) [Compound 178], the IC50 is no more than 100 nM.

With `CC(COCCC(=O)N1CCN(c2ccc(Cl)cn2)CC1)n1cc(C(F)(F)F)c2c(=O)[nH]ncc21` (single isomer, unassigned) [Compound 375], the IC50 was no more than 100 nM.

As for `CC1CN(c2ncc(C(F)(F)F)cn2)CCN1C(=O)CCOCCn1nc(C(F)(F)F)c2c(=O)[nH]ncc21` (centres unmarked) [Compound 160], the IC50 was no more than 100 nM.

For `O=C(OCC1CC1Cn1nc(C(F)(F)F)c2c(=O)[nH]ncc21)N1CCN(c2ncc(C(F)(F)F)cn2)CC1` (centres unmarked) [Compound 492], the IC50 was no more than 100 nM.

Take `CC(COCCC(=O)N1CCN(c2ncc(C(F)(F)F)cn2)CC1)n1ncc2c(=O)[nH]ncc21` (centres unmarked) [Compound 168]: the IC50 was no more than 100 nM.

Regarding `CC(COCCC(=O)N1CCN(c2noc(C(F)(F)F)n2)CC1)n1nc(C(F)(F)F)c2c(=O)[nH]ncc21` (single isomer, unassigned) [Compound 344], the IC50 is no more than 100 nM.

As for `O=C(COCCOc1cccc2c(=O)[nH]cnc12)N1CCN(c2ncc(C(F)(F)F)cn2)CC1` [Compound 15], the IC50 was in the range of 100 to 1000 nM.

For `CC(COCCC(=O)N1CCN(c2ncc(Cl)cn2)CC1)n1cc(C(F)(F)F)c2c(=O)[nH]ncc21` (centres unmarked) [Compound 273], the IC50 is no more than 100 nM.

Consider `Cn1c(N2CCN(C(=O)CCOCCn3cc(C(F)(F)F)c4c(=O)[nH]ncc43)CC2)nc2ccccc21` [Compound 381], for which the IC50 is no more than 100 nM.

In a further experiment the test system is MC38 colorectal cancer cells. Description: Induction of IFNβ in cancer cell supernatants (mouse IFNβ ELISA), MC38. As to conditions: 10 μM compound 177 alone or in combination with chemotherapeutic agents, 24 hours, FIG. 1. Type of experiment: cell-based, murine. As for the experimental part:
as §1, §2
With `CC(COCCC(=O)N1CCN(c2ncc(C(F)(F)F)cn2)CC1)n1nc(C(F)(F)F)c2c(=O)[nH]ncc21` (single isomer, unassigned) [Compound 177, 1-(1-(3-oxo-3-(4-(5-(trifluoromethyl)pyrimidin-2-yl)piperazin-1-yl)propoxy)propan-2-yl)-3-(trifluoromethyl)-1,5-dihydro-4H-pyrazolo[3,4-d]pyridazin-4-one], the “induction of IFNβ in cell supernatants” value is listed as “induction of IFNβ”.

Another experiment deals with cancer cell lines with high baseline expression of interferon stimulated genes.
Assay: not given
As to conditions: cited from earlier work.
Turning to `C[C@@H](COCCC(=O)N1CCN(c2ncc(C(F)(F)F)cn2)CC1)Nc1cn[nH]c(=O)c1C(F)(F)F` [RBN-2397], the inhibition of proliferation entry is “potently inhibited proliferation”.

Another experiment deals with type I interferon responses.
Assay: not given
As to conditions: both in vitro and in vivo; cited from earlier work.
Turning to `C[C@@H](COCCC(=O)N1CCN(c2ncc(C(F)(F)F)cn2)CC1)Nc1cn[nH]c(=O)c1C(F)(F)F` [RBN-2397], the “type I interferon responses” value is listed as “restored type I interferon responses”.
